{"source": "patent US20070282007A1", "about": "“TREATMENT OF PAIN DISORDERS WITH trans 4-(3,4-DICHLOROPHENYL)-1,2,3,4-TETRAHYDRO-1-NAPHTHALENAMINE AND ITS FORMAMIDE” (SEPRACOR INC., priority 2006, published 2007)", "key": {"[1]": {"target": "M2 (Homo sapiens, UniProt P08172)", "sequence (P08172 whole entry)": "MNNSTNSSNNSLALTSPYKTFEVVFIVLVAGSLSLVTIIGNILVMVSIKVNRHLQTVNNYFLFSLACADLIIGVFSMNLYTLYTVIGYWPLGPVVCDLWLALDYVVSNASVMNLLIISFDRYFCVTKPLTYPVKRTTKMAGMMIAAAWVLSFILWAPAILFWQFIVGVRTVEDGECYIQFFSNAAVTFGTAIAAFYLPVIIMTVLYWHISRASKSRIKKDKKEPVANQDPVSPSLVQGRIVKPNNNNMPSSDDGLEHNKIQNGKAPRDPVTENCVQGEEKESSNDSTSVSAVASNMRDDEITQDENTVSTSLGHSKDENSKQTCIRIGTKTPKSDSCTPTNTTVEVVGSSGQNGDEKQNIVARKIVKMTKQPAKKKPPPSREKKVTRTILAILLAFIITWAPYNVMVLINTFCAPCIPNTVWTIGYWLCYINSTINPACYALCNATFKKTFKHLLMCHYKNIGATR", "assay": "In vitro radioligand binding assay, M2"}, "[2]": {"target": "T1, 5-HT1A (Homo sapiens, UniProt P08908)", "T1 sequence (P08908 1-422)": "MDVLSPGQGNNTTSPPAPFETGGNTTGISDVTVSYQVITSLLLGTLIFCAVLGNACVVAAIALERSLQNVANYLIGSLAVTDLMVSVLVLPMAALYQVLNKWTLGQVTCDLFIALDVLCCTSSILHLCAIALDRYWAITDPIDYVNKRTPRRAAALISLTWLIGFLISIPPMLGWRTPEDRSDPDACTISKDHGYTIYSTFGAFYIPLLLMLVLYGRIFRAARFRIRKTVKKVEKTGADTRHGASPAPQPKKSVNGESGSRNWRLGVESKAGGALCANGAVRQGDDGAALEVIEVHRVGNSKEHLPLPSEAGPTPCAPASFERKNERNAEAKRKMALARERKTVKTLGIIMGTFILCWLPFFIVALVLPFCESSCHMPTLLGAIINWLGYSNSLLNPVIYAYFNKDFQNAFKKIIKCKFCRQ", "assay": "In vitro radioligand binding assay, 5-HT1A"}, "[3]": {"target": "D1 (Homo sapiens, UniProt P21728)", "sequence (P21728 whole entry)": "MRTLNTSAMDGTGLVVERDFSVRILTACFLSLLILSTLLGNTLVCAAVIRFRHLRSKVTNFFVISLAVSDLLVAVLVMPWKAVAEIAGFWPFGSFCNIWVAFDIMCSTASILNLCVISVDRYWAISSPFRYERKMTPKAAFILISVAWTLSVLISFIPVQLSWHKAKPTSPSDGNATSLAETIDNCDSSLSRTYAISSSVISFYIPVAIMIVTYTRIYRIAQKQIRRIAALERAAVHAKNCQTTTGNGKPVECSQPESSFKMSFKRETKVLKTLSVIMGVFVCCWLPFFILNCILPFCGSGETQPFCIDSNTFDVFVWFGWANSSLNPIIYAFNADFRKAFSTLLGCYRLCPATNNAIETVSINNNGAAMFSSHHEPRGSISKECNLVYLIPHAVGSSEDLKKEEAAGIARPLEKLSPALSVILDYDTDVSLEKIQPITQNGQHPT", "assay": "In vitro radioligand binding assay, D1"}, "[4]": {"target": "5-HT2C (Homo sapiens, UniProt P28335)", "sequence (P28335 33-458, species assumed)": "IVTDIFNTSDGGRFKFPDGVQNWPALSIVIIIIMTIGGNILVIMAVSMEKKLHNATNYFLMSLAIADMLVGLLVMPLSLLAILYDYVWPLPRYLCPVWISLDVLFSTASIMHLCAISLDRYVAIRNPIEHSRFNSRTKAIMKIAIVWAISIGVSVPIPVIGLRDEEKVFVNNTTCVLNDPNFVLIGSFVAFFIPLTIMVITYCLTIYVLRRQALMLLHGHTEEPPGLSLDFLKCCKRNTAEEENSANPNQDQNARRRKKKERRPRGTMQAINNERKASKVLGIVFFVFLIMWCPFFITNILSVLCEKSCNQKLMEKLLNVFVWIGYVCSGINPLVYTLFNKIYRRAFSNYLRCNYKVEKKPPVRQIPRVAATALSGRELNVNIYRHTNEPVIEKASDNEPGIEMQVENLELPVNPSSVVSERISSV", "assay": "In vitro radioligand binding assay, 5-HT2C"}, "[5]": {"tested_on": "Beagle dogs", "assay": "Cardiovascular safety study in conscious telemetered dogs", "type": "in vivo", "details": "single oral doses 0.5, 1.5 and 5 mg/kg", "experimental": "There were four animals/compound and each animal within the treatment group was exposed to the three doses (plus a empty capsule control), in a dose ramp-up manner with a minimum of 72 hours between doses."}, "[6]": {"target": "hERG channel (Homo sapiens, UniProt Q12809)", "sequence (Q12809 whole entry)": "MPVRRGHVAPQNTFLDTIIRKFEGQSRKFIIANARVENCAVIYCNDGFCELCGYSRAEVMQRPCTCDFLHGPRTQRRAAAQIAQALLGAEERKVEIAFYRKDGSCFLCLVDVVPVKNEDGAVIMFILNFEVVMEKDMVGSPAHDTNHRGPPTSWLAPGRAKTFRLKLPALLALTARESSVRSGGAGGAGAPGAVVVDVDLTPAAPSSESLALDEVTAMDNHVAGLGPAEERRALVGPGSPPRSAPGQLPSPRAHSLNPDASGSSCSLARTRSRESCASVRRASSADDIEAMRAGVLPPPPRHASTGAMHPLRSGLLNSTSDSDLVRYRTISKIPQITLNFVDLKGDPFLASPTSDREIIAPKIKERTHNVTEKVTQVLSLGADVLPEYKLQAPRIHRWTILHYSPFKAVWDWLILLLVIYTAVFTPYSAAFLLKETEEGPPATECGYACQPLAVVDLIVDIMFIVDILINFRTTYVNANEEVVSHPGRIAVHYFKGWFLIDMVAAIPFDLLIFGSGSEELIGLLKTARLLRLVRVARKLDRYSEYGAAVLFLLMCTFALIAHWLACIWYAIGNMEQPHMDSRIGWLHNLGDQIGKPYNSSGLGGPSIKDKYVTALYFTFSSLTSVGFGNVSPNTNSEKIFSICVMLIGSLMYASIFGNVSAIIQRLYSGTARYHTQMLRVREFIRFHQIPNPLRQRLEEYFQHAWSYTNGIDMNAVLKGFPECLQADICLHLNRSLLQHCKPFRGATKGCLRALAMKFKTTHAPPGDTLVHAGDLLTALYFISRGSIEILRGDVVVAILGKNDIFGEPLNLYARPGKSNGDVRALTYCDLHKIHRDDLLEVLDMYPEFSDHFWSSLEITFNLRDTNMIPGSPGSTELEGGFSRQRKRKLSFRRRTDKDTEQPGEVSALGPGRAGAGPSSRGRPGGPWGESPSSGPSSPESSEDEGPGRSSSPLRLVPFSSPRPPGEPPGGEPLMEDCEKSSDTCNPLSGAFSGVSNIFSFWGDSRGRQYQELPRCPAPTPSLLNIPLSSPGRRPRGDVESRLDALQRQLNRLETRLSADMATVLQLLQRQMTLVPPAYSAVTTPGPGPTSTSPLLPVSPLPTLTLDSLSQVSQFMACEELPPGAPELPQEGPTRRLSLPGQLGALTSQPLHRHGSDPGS", "assay": "hERG channel current in stably transfected HEK293 cells", "experimental": "Studies were conducted to determine effects on IKr, the rapidly activating delayed rectifier cardiac potassium current in the human heart. […] In this assay system, HERG channel current serves as a surrogate for IKr."}, "[7]": {"tested_on": "Long-Evans derived rats", "assay": "Spontaneous locomotor activity study", "type": "in vivo, rat", "details": "mean ± SEM", "experimental": "The effects on locomotor activity were studied in Long-Evans derived rats following protocol outlined in Dews P., Br. J. Pharmacol., 8: 46 (1953).\nThis effect was still evident 2 hours following drug administration. On the basis of these studies, CNS effects and long duration of action may be anticipated at sufficient clinical doses."}, "[8]": {"tested_on": "Long-Evans derived rats", "assay": "Porsolt forced swim test", "type": "in vivo, rat", "details": "for Mean Immobility Time (% of Total) ± SEM, Day 2 Study: 3 administrations", "experimental": "Performance in the Porsolt forced swim test was evaluated for sertraline and Compound P following protocols outlined in Porsolt R. D., et al., Arch. Int. Pharmacodyn., 229: 327 ([…]).\nThe Porsolt forced swim test is a model of “behavioral despair”, which has been used as an in vivo model for assessing potential antidepressant-like activity. Both test articles were dissolved in physiological saline (vehicle) and administered intraperitoneally. […] Long-Evans derived rats were used."}, "[9]": {"target": "5-HT1B (Homo sapiens, UniProt P28222)", "sequence (P28222 whole entry, species assumed)": "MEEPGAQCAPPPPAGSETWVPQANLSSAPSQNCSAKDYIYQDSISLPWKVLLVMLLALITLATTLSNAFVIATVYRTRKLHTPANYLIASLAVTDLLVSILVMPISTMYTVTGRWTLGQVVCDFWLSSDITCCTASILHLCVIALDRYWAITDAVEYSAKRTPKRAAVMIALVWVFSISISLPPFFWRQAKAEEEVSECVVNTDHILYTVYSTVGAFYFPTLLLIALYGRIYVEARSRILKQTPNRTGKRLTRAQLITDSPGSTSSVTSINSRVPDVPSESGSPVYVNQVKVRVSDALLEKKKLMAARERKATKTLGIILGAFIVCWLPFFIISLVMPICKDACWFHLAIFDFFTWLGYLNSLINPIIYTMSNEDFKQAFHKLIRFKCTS", "assay": "In vitro radioligand binding assay, 5-HT1B"}, "[10]": {"target": "T2, M5 (Homo sapiens, UniProt P08912)", "T2 sequence (P08912 1-532)": "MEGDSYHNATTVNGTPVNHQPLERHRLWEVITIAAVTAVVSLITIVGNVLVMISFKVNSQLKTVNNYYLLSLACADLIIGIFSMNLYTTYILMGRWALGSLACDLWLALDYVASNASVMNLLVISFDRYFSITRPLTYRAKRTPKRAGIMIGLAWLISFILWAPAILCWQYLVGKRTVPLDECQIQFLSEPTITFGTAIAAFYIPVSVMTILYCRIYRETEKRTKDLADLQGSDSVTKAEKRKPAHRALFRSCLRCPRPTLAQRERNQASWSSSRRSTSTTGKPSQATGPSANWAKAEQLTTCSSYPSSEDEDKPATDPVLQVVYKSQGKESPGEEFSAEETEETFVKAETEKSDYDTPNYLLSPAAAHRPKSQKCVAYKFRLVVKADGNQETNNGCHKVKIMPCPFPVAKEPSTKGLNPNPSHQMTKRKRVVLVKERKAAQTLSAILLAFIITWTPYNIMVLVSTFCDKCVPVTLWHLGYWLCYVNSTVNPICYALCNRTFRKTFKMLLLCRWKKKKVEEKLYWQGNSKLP", "assay": "In vitro radioligand binding assay, M5", "details": "read-out: Ki, M5"}}, "data": [{"smiles": "CN[C@H]1CC[C@@H](c2ccc(Cl)c(Cl)c2)c2ccccc21", "note": "[Sertraline, (1S,4S)-cis 4-(3,4-dichlorophenyl)-1,2,3,4-tetrahydro-N-methyl-1-napthalenamine, reference compound]", "values": [{"measurement": "Ki", "setting": "[1]", "value": 3.7, "unit": "µM"}, {"measurement": "Ki", "setting": "[2]", "value": 2.4, "unit": "µM"}, {"measurement": "Ki", "setting": "[3]", "value": 1.6, "unit": "µM"}, {"measurement": "Ki", "setting": "[4]", "value": 5.6, "unit": "µM"}, {"measurement": "effect on heart rate, blood pressure or ECG parameters (including QTc)", "setting": "[5]", "value": "no effect"}, {"measurement": "IC50", "setting": "[6]", "value": 1.1, "unit": "µM"}, {"measurement": "Total Activity Counts, 71–80 Minutes", "setting": "[7]; 2.5 mg/kg single i.p. dose", "value": "34 ± 9"}, {"measurement": "Total Activity Counts, 91–100 Minutes", "setting": "[7]; 2.5 mg/kg single i.p. dose", "value": "25 ± 9"}, {"measurement": "Total Activity Counts, 111–120 Minutes", "setting": "[7]; 2.5 mg/kg single i.p. dose", "value": "30 ± 10"}, {"measurement": "Total Activity Counts, Total 1st Hour", "setting": "[7]; 2.5 mg/kg single i.p. dose", "value": "559 ± 57^2"}, {"measurement": "Total Activity Counts, Total 2nd Hour", "setting": "[7]; 2.5 mg/kg single i.p. dose", "value": "211 ± 60"}, {"measurement": "Total Activity Counts, 71–80 Minutes", "setting": "[7]; 5.0 mg/kg single i.p. dose", "value": "32 ± 11"}, {"measurement": "Total Activity Counts, 91–100 Minutes", "setting": "[7]; 5.0 mg/kg single i.p. dose", "value": "14 ± 9"}, {"measurement": "Total Activity Counts, 111–120 Minutes", "setting": "[7]; 5.0 mg/kg single i.p. dose", "value": "16 ± 11"}, {"measurement": "Total Activity Counts, Total 1st Hour", "setting": "[7]; 5.0 mg/kg single i.p. dose", "value": "327 ± 55"}, {"measurement": "Total Activity Counts, Total 2nd Hour", "setting": "[7]; 5.0 mg/kg single i.p. dose", "value": "95 ± 41"}, {"measurement": "Mean Immobility Time (% of Total) ± SEM, Day 2 Study", "setting": "[8]; 2.5 mg/kg i.p.", "value": "86 ± 3 % of Total"}, {"measurement": "Mean Immobility Time (% of Total) ± SEM, Day 4 Study", "setting": "[8]; 2.5 mg/kg i.p., 7 administrations", "value": "78 ± 3 % of Total"}, {"measurement": "Mean Immobility Time (% of Total) ± SEM, Day 2 Study", "setting": "[8]; 5.0 mg/kg i.p.", "value": "77 ± 2 % of Total"}, {"measurement": "Mean Immobility Time (% of Total) ± SEM, Day 4 Study", "setting": "[8]; 5.0 mg/kg i.p., 7 administrations", "value": "64 ± 2 % of Total"}, {"measurement": "Mean Immobility Time (% of Total) ± SEM, Day 2 Study", "setting": "[8]; 10.0 mg/kg i.p.", "value": "72 ± 3 % of Total"}, {"measurement": "Mean Immobility Time (% of Total), Day 4 Study", "setting": "[8]; 10.0 mg/kg i.p., 7 administrations, error is std dev (N = 2)", "value": "70 ± 4 % of Total"}, {"measurement": "Ki", "setting": "[9]", "value": 8.5, "unit": "µM"}, {"measurement": "Ki", "setting": "[10]", "value": 2, "unit": "µM"}]}]}
